Here are results for 6 compounds from publication PMC5120274, “Characterization of the Annonaceous acetogenin, annonacinone, a natural product inhibitor of plasminogen activator inhibitor-1” (Scientific Reports, 2016).

Values joined by “and” are separate entries in the source; they are usually repeats but may differ in a detail not shown here. Equal values may be shown once. Read-outs that look alike come from different tables or passages of the source.

In general, IC50 refers to the concentration that inhibits the measured activity by half.

In test [1] the target is T1, PAI-1 (Homo sapiens, UniProt P05121).
T1 construct: purchased Stago BNL (Asnières sur Seine, FR)
T1 sequence (P05121 24-402): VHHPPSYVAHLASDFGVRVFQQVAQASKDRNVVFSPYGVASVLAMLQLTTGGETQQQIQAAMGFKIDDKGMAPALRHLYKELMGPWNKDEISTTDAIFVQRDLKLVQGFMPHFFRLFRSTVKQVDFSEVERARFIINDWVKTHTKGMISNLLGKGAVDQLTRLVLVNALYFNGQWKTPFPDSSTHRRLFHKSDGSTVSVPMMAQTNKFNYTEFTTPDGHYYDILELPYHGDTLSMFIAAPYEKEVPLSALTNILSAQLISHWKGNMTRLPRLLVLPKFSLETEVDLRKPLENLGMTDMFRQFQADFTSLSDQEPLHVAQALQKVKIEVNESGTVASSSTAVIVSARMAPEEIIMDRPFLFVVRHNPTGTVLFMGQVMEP
Description: chromogenic screening assay: rate of tPA inhibition by PAI-1 (spectrozyme tPA hydrolysis). The conditions noted are these: for kapp 50 μM (apparent rate constant of tPA inhibition by PAI-1): compound 50 μM, 1% DMSO, PAI-1 20 nM, tPA 10 nM, DMSO 1% control 4.4 ± 0.3 × 10^-3. The class given is biochemical. Here is the method: Compounds from our local collection BioCIS and from the Prestwick compound library (Prestwick chemicals, Illkirch, FR), a collection containing only FDA approved drugs (around 4000 compounds in total) were tested in a chromogenic assay measuring the inhibition rate of tPA-catalyzed spectrozyme® tPA hydrolysis in the presence of PAI-1. Compounds (20 μL, final concentration 50 μM, 1% DMSO) were dispensed in a 96 well half area Greiner plate. A mixture containing 20 μL of PAI-1 (final concentration 20 nM) and 80 μL of Spectrozyme-tPA (final concentration 400 μM) was then added, and the mixture pre-incubated for 45 minutes at 37 °C. At the end of pre-incubation time, 90 μL of the mixture were added to another 96 well half area plate containing 10 μL tPA (final concentration 10 nM). The kinetic was then measured at 405 nm for 45 min at 37 °C in an Envision microplate reader. Progress curves were fitted using the pseudo first order equation to determine the apparent rate constant k.

The subject of the next test is vitronectin-bound PAI-1. To be noted: cited from earlier work.
For test [2], the target named is T1, PAI-1. As to the kind of experiment: thromboelastography (TEG) on pooled human plasma with tPA and PAI-1. It is filed as biochemical. The conditions noted are these: compound 50 μM, tPA 9 nM + PAI-1 22 nM. As to the method:
20 μL of CaCl2 (0.2 M), 10 μL of PAI-1 (final concentration 22 nM) and 10 μL of tested compounds were added in a TEG cup and pre-incubated for 20 min at room temperature. On the other hand, 1 mL of pooled citrated normal human plasma (pool of at least 10 healthy donors) was added to a vial containing 20 μL of Kaolin. 680 μl of the plasma/Kaolin mixture were then added to 20 μL of tPA (final concentration 9 nM). At the end of pre-incubation time, 320 μL of the plasma/tPA/kaolin mixture were transferred into the TEG cup and the thromboelastogram measured.

Where [3] appears, read: chromogenic screening assay, without vitronectin, mean ± SEM, n = 3, read-out: IC50.

`CCCCCCCCCCCC[C@@H](O)[C@H]1CC[C@H]([C@H](O)CCCC[C@H](O)CCCCC[C@@H](O)CC2=CC(C)OC2=O)O1` (stereo partly shown) [Annonacine]: inhibition on PAI-1 [1] was half-maximal at 6 ± 3 µM (IC50). For the same compound, the “kapp 50 μM (apparent rate constant of tPA inhibition by PAI-1)” value on PAI-1 [1] (mean ± SEM, n = 3) is given as 6.4 ± 0.4 × 10^-4 s^-1.

Turning to `CCCCCc1c(-c2ccc3cc(OCc4nnn[nH]4)ccc3c2)n(Cc2ccccc2)c2ccccc12` [PAI-749], the “activity against PAI-1 bound to vitronectin” value with vitronectin-bound PAI-1 was “devoid of activity”.

With `CCCCCCCCCCCC[C@@H](O)[C@H]1CC[C@H]([C@H](O)CCCC[C@H](O)CCCCCC2CC(CC(C)=O)C(=O)O2)O1` (stereo partly shown) [Isoannonacine], the IC50 at PAI-1 [1] is greater than 50 µM. In addition, on PAI-1 [1] (mean ± SEM, n = 3), the “kapp 50 μM (apparent rate constant of tPA inhibition by PAI-1)” value is reported as 1.1 ± 0.1 × 10^-3 s^-1.

Turning to `O=C(O)C(=O)c1cn(Cc2ccccc2)c2ccc(-c3ccc(OC(F)(F)F)cc3)cc12` [Tiplaxtinin, reference compound], the “kapp 50 μM (apparent rate constant of tPA inhibition by PAI-1)” value on PAI-1 [1] (mean ± SEM, n = 3) is 1.7 ± 0.3 × 10^-3 s^-1. Also, the “kapp 50 μM (apparent rate constant of tPA inhibition by PAI-1)” value at PAI-1 [1] (mean ± SEM, n = 3, listed as tiplaxtinin) was 1.7 ± 0.3 × 10^−3 s^-1. Besides, in the test on vitronectin-bound PAI-1, the “activity against PAI-1 bound to vitronectin” value was “devoid of activity” and the “activity against vitronectin-bound PAI-1” value was “inactive”. Moreover, at PAI-1 [2], the Angle was 66.2 °, the “K (clot formation time)” value was determined as 1.8 min, the “MA (maximal amplitude)” value is 24.5 mm and the “R (clotting time)” value stood at 7 min. Further, the “LY30 (clot lysis 30 minutes after maximal amplitude)” value at PAI-1 [2] (tPA alone 94.3%, tPA + PAI-1 0%) was 21.9%. For the same compound, the “LY60 (clot lysis 60 minutes after maximal amplitude)” value at PAI-1 [2] (tPA alone 96.8%, tPA + PAI-1 0%) was 50% and 50.2%.

`CCCCCCCCCC[C@H](O)[C@H]1CC[C@H]([C@H]2CC[C@H]([C@H](O)CCCCCCCCCCC(O)CC3=C[C@H](C)OC3=O)O2)O1` (stereo partly shown) [Rolliniastatin-2]: on PAI-1 [1] (setting [3]), the half-inhibitory concentration (IC50) stood at 19 ± 1 µM. In addition, on PAI-1 [1] (mean ± SEM, n = 3), the “kapp 50 μM (apparent rate constant of tPA inhibition by PAI-1)” value was 7.5 ± 0.5 × 10^-4 s^-1.

As for `CCCCCCCCCC[C@H](O)[C@H]1CC[C@H]([C@H]2CC[C@H]([C@H](O)CCCCCCCCCCC3CC(CC(C)=O)C(=O)O3)O2)O1` (stereo partly shown) [Isorolliniastatin-2], the IC50 on PAI-1 [1] (setting [3]) came out at 10 ± 2 µM. Besides, the “kapp 50 μM (apparent rate constant of tPA inhibition by PAI-1)” value at PAI-1 [1] (mean ± SEM, n = 3) is given as 8.5 ± 0.6 × 10^-4 s^-1.
